Among the data in patent US9120779B2, “Inhibitors of HCV NS5A” (PRESIDIO PHARMACEUTICALS, INC., priority 2008, dated 2015) are EC50 values, retold here.

A value given as a limit tells only on which side of the number the result lay.

The test system of the first test is HCV genotype 1b replicon in Huh 7 cells. Nature of the test: HCV replicon assay (luciferase readout, 1b_Huh-Luc/Neo-ET cell line). It counts as cell-based. The note with it: Hepatitis C virus, Huh-7, 72 h, read-out: Inhibition of HCV genotype 1b, Table 1, 72 h incubation. The method, then: Biological activity of the compounds of the invention was determined using an HCV replicon assay. The 1b_Huh-Luc/Neo-ET cell line persistently expressing a bicistronic genotype 1b replicon in Huh 7 cells was obtained from R^eBLikon GMBH. This cell line was used to test compound inhibition using luciferase enzyme activity readout as a measurement of compound inhibition of replicon levels.
On Day 1 (the day after plating), each compound is added in triplicate to the cells. Plates incubated for 72 h prior to running the luciferase assay. Enzyme activity was measured using a Bright-Glo Kit (cat. number E2620) manufactured by Promega Corporation. The following equation was used to generate a percent control value for each compound. % Control=(Average Compound Value/Average Control)*100
The EC50 value was determined using GraphPad Prism and the following equation: Y=Bottom+(Top−Bottom)/(1+10^((Log IC50−X)*HillSlope))
EC50 values of compounds are repeated several times in the replicon assay.
Example compounds of the disclosed invention are illustrated in Tables 1-9 attached as appendices. The tables show inhibitory activity of many of the example compounds with respect to HCV 1b. […] The tables further provide mass spectrometry results for the synthesized example compounds.
On the technique in general: Replicon systems follow genome replication, usually without infectious particles.
Turning to `CC(C)[C@@H](NC(=O)N1CCOCC1)C(=O)N1CCC[C@H]1C(=O)N[C@H]1CC[C@H](c2ccc(-c3cnc([C@@H]4CCCN4C(=O)[C@H](NC(=O)N4CCOCC4)C(C)C)[nH]3)cc2)CC1` [compound 360], the EC50 lay in the range of 10 to 999 nM.

Consider `COC(=O)N[C@H](C(=O)N1CCC[C@H]1c1ncc(-c2ccc([C@H]3CC[C@H](c4cnc([C@@H]5CCCN5C(=O)[C@@H](NC(=O)OC)C(C)C)[nH]4)CC3)cc2)[nH]1)C(C)C` [compound 381], for which the EC50 was < 1 nM.

On to `O=C(NC1CCC(c2ccc(-c3cnc([C@@H]4COCCN4C(=O)C(NC(=O)N4CCOCC4)c4ccccc4)[nH]3)cc2)CC1)[C@@H]1CCCN1C(=O)C(NC(=O)N1CCOCC1)c1ccccc1` (some centres unmarked) [compound 372], for which the EC50 lay in the range of 1 to 9.9 nM.

As to `CC(C)[C@@H](NC(=O)OC(C)(C)C)C(=O)N1CCC[C@H]1C(=O)N[C@H]1CC[C@H](c2ccc(-c3cnc([C@@H]4CCCN4C(=O)[C@H](NC(=O)OC(C)(C)C)C(C)C)[nH]3)cc2)CC1` [compound 356], the EC50 is 10 to 999 nM.

As for `COC(=O)N[C@H](C(=O)N1CCC[C@H]1c1ncc(-c2ccc([C@H]3CC[C@H](c4cnc([C@@H]5CCCN5C(=O)[C@@H](c5ccccc5)N5CCCCC5)[nH]4)CC3)cc2)[nH]1)C(C)C` [compound 947], the EC50 is < 1 nM.

As for `COC(=O)N[C@H](C(=O)N1CCC[C@H]1c1ncc(-c2ccc([C@H]3CC[C@](C)(c4cnc([C@@H]5CCCN5C(=O)[C@@H](NC(=O)OC)C(C)C)[nH]4)CC3)cc2)[nH]1)C(C)C` [compound 2005], the EC50 was < 1 nM.

Still in this test, the particulars now being: Hepatitis C virus, Huh-7, 72 h, read-out: Inhibition of HCV genotype 1b, Table 2, 72 h incubation.
`COC(=O)N[C@H](C(=O)N1CCC[C@H]1c1ncc(-c2ccc(-c3ccc4nc([C@@H]5CCCN5C(=O)[C@@H](NC(=O)OC)C(C)C)[nH]c4c3)cc2)[nH]1)C(C)C` [compound 403]: the EC50 is < 1 nM.

As for `COC(=O)N[C@H](C(=O)N1CCC[C@H]1c1ncc(-c2ccc(-c3ccc4nc([C@@H]5CCCN5C(=O)[C@@H](NC(=O)OC)[C@@H](C)OC)[nH]c4c3)cc2)[nH]1)[C@@H](C)OC` [compound 402], the EC50 was < 1 nM.

Still in this test, the particulars now being: Hepatitis C virus, Huh-7, 72 h, read-out: Inhibition of HCV genotype 1b, Table 3, 72 h incubation.
With `COC(=O)N[C@@H](C(=O)N1CCC[C@H]1c1ncc(-c2cc(F)c(N3CCC(c4cnc([C@@H]5COCCN5C(=O)[C@H](NC(=O)C5CC5)c5ccccc5)[nH]4)CC3)c(F)c2)[nH]1)c1ccccc1` [compound 494], the EC50 was < 1 nM.

For the compound `COC(=O)N[C@@H](C(=O)N1CCC[C@H]1c1ncc(-c2cc(F)c(N3CCC(c4cnc([C@@H]5CCCCN5C(=O)[C@H](NC(=O)OC)C(C)C)[nH]4)CC3)c(F)c2)[nH]1)C(C)C` [compound 504], the EC50 is > 1000 nM.

On to `CC(C)(C)OC(=O)N[C@@H](C(=O)N1CCC[C@H]1c1ncc(-c2cc(F)c(N3CCC(c4cnc([C@@H]5CCCN5C(=O)[C@H](NC(=O)OC(C)(C)C)c5ccccc5)[nH]4)CC3)c(F)c2)[nH]1)c1ccccc1` [compound 482], for which the EC50 was < 1 nM.

Take `COC(=O)N[C@@H](C(=O)N1CCC[C@H]1c1ncc(-c2cc(F)c(N3CCC(c4cnc([C@@H]5COCCN5C(=O)[C@H](NC(=O)OC)c5ccccc5)[nH]4)CC3)c(F)c2)[nH]1)c1ccccc1` [compound 492]: the EC50 is < 1 nM.

For the compound `COC(=O)N[C@H](C(=O)N[C@H](c1ncc(C2CCN(c3c(F)cc(-c4cnc([C@@H]5CCCN5C(=O)[C@@H](NC(=O)OC)C(C)C)[nH]4)cc3F)CC2)[nH]1)C(C)C)C(C)C` [compound 515], the EC50 was < 1 nM.

Consider `COC(=O)N[C@@H](C(=O)N1CCC[C@H]1c1ncc(C2CCN(c3c(F)cc(-c4cnc([C@@H]5CCCN5C(=O)[C@H](NC(=O)OC(C)(C)C)c5ccccc5)[nH]4)cc3F)CC2)[nH]1)c1ccccc1` [compound 479], for which the EC50 is < 1 nM.

`CC(C)(C)OC(=O)N[C@@H](C(=O)N1CCC[C@H]1C(=O)NC1CCN(c2ccc(-c3cnc([C@@H]4CCCN4C(=O)[C@H](NC(=O)OC(C)(C)C)c4ccccc4)[nH]3)cc2F)CC1)c1ccccc1` [compound 453]: the EC50 is < 1 nM.

Take `COC(=O)N[C@H](C(=O)N1CCC[C@H]1c1ncc(-c2cc(F)c(N3CCC(c4cnc([C@@H]5CCCCN5C(=O)[C@@H](NC(=O)OC)C(C)C)[nH]4)CC3)c(F)c2)[nH]1)C(C)C` [compound 503]: the EC50 is < 1 nM.

As for `CC(C)(C)OC(=O)N[C@@H](C(=O)N1CCOC[C@H]1c1ncc(-c2cc(F)c(N3CCC(c4cnc([C@@H]5CCCN5C(=O)[C@H](NC(=O)OC(C)(C)C)c5ccccc5)[nH]4)CC3)c(F)c2)[nH]1)c1ccccc1` [compound 508], the EC50 was < 1 nM.

With `COC(=O)N[C@@H](C(=O)N1CCC[C@H]1c1ncc(-c2cc(F)c(N3CCC(c4cnc([C@@H]5CCCN5C(=O)[C@H](NC(=O)OC)c5ccccc5)[nH]4)CC3)c(F)c2)[nH]1)c1ccccc1` [compound 459], the EC50 is < 1 nM.

On to `CC(C)(C)OC(=O)N[C@@H](C(=O)N1CCC[C@H]1c1ncc(-c2cc(F)c(N3CCC(c4cnc([C@@H]5CCCCN5C(=O)[C@H](NC(=O)OC(C)(C)C)c5ccccc5)[nH]4)CC3)c(F)c2)[nH]1)c1ccccc1` [compound 483], for which the EC50 is < 1 nM.

Still in this test, the particulars now being: Hepatitis C virus, Huh-7, 72 h, read-out: Inhibition of HCV genotype 1b, Table 4, 72 h incubation.
On to `COC(=O)N[C@H](C(=O)N[C@@H](C)c1nc2ccc(-c3ccc(-c4ccc5nc([C@@H]6CCCN6C(=O)[C@@H](c6ccccc6)N(C)C)[nH]c5c4)cc3)cc2[nH]1)C(C)C` [compound 2037], for which the EC50 was < 1 nM.

Still in this test, the particulars now being: Hepatitis C virus, Huh-7, 72 h, read-out: Inhibition of HCV genotype 1b, Table 5, 72 h incubation.
Turning to `COC(=O)N[C@H](C(=O)N1CCC[C@H]1c1ncc(C23CCC(c4ccc(-c5cnc([C@@H]6CCCN6C(=O)[C@@H](NC(=O)OC6CCOCC6)C(C)C)[nH]5)cc4)(CC2)CC3)[nH]1)C(C)C` [compound 2079], the EC50 was in the range of 1 to 9.9 nM.

With `CC(C)[C@@H](C(=O)N1CCC[C@H]1c1ncc(-c2ccc(C34CCC(c5cnc([C@@H]6CCCN6C(=O)[C@H](C(C)C)N(C)C)[nH]5)(CC3)CC4)cc2)[nH]1)N(C)C` [compound 919], the EC50 lay in the range of 10 to 999 nM.

As to `COC(=O)N[C@H](C(=O)N1CCC[C@H]1c1ncc(-c2ccc(C34CCC(c5cnc([C@@H]6CCCN6C(=O)[C@@H](NC(=O)C6CCOCC6)C(C)C)[nH]5)(CC3)CC4)cc2)[nH]1)C(C)C` [compound 641], the EC50 was > 1000 nM.

Turning to `COC(=O)N[C@@H](C(=O)N1CCC[C@H]1c1ncc(-c2ccc(C34CCC(c5cnc([C@@H]6CCCN6C(=O)[C@H](NC(=O)OC)C(C)C)[nH]5)(CC3)CC4)cc2)[nH]1)c1ccccc1` [compound 616], the EC50 is < 1 nM.

Regarding `COC(=O)N[C@@H](C(=O)N1CCC[C@H]1c1ncc(C23CCC(c4ccc(-c5cnc([C@@H]6CCCN6C(=O)[C@H](OC)c6ccccc6)[nH]5)cc4)(CC2)CC3)[nH]1)c1ccccc1` [compound 620], the EC50 is < 1 nM.

Take `COC(=O)N[C@H](C(=O)N1CCC[C@H]1c1ncc(-c2ccc(C34CCC(c5cnc([C@@H]6CCCN6C(=O)[C@@H](NC(=O)OC)C(C)(C)C)[nH]5)(CC3)CC4)cc2)[nH]1)C(C)(C)C` [compound 2093]: the EC50 was < 1 nM.

Consider `COC(=O)N[C@H](C(=O)N1CCC[C@H]1c1ncc(C23CCC(c4ccc(-c5cnc([C@@H]6CCCN6C(=O)[C@@H](c6ccccc6)N6CCCCC6)[nH]5)cc4)(CC2)CC3)[nH]1)C(C)C` [compound 2069], for which the EC50 was < 1 nM.

For `COC(=O)N[C@H](C(=O)N1CCC[C@H]1c1ncc(-c2ccc(C34CCC(c5cnc([C@@H]6CCCN6C(=O)[C@H](NC(=O)C6CC6)c6ccccc6)[nH]5)(CC3)CC4)cc2)[nH]1)C(C)C` [compound 631], the EC50 is < 1 nM.

Consider `COC(=O)N[C@H](C(=O)N1CCC[C@H]1c1ncc(-c2ccc(C34CCC(c5cnc([C@@H]6CCCN6C(=O)[C@H](C(C)C)N(C)C(=O)OC)[nH]5)(CC3)CC4)cc2)[nH]1)C(C)C` [compound 911], for which the EC50 is < 1 nM.
